According to patent publication US20240158446A1, “CYCLIC COMPOUND HAVING SELECTIVE INHIBITORY ACTION ON KRAS OVER HRAS AND NRAS” (CHUGAI SEIYAKU KABUSHIKI KAISHA, priority 2021, published 2024):
Read-outs that look alike come from different tables or passages of the source. Where a SMILES comes first, the peptide text is derived from it. Bridges are numbered along the chain shown (N, C = ends). [ ]: non-standard residue; d: D form. The star is where a group is joined. hPhe(3-Cl-4-CF3) = N[C@@H](CCc1ccc(C(F)(F)F)c(Cl)c1)C(=O)O; NPrPhe(4-CF3) = CCCN[C@@H](Cc1ccc(C(F)(F)F)cc1)C(=O)O; NMeGly(cPent) = CN[C@H](C(=O)O)C1CCCC1; NMeD = CN[C@@H](CC(=O)O)C(=O)O; NMeL = CN[C@@H](CC(C)C)C(=O)O; Morpholide = C1CN(*)CCO1; Ac5c = NC1(C(=O)O)CCCC1; Aze = O=C(O)[C@@H]1CCN1; Ac3c = NC1(C(=O)O)CC1; Sar = CNCC(=O)O

How the values were obtained:
[1] = target: GDP-bound KRAS wild-type protein (Homo sapiens, UniProt P01116); assay: Binding to KRAS by surface plasmon resonance (SPR), Single Cycle Kinetics; details: GDP-bound KRAS wild-type protein, read-out: KRAS KD
Sequence of GDP-bound KRAS wild-type protein (P01116 whole entry): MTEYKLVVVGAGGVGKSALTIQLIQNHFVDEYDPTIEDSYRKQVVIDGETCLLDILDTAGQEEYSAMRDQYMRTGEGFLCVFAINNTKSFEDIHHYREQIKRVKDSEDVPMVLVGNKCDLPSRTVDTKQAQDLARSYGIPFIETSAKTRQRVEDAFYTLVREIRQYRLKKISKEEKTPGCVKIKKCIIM

[2] = target: GDP-bound HRAS wild-type protein (Homo sapiens, UniProt P01112); assay: Binding to HRAS by surface plasmon resonance (SPR), Single Cycle Kinetics; details: for HRAS/KRAS (ratio of KD value for HRAS to KD value for KRAS) / HRAS/KRAS (ratio of KD value with respect to HRAS to KD value with respect to KRAS): SPR, GDP-bound HRAS wild-type protein vs GDP-bound KRAS wild-type protein; for HRAS/KRAS (ratio of KD value with respect to GDP-bound HRAS wild-type protein to KD value with respect to KRAS): SPR KD ratio HRAS/KRAS, class symbols
Sequence of GDP-bound HRAS wild-type protein (P01112 whole entry): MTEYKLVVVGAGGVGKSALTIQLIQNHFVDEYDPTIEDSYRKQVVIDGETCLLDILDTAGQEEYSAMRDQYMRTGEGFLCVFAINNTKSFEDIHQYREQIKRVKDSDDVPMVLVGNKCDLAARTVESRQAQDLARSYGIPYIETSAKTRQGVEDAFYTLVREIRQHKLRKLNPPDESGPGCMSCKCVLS

[3] = target: GDP-bound NRAS wild-type protein (Homo sapiens, UniProt P01111); assay: Binding to NRAS by surface plasmon resonance (SPR), Single Cycle Kinetics; details: for NRAS/KRAS (ratio of KD value for NRAS to KD value for KRAS) / NRAS/KRAS (ratio of KD value with respect to NRAS to KD value with respect to KRAS): SPR, GDP-bound NRAS wild-type protein vs GDP-bound KRAS wild-type protein; for NRAS/KRAS (ratio of KD value with respect to GDP-bound NRAS wild-type protein to KD value with respect to KRAS): SPR KD ratio NRAS/KRAS, class symbols
Sequence of GDP-bound NRAS wild-type protein (P01111 whole entry): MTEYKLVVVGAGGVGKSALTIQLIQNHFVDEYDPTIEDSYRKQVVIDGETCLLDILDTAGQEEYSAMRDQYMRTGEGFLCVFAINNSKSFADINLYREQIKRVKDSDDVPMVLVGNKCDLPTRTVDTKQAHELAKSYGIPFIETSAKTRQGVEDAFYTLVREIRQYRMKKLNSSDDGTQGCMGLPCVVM

Row | Structure (SMILES) | HRAS/KRAS (ratio of KD value for HRAS to KD value for KRAS) [2] | NRAS/KRAS (ratio of KD value for NRAS to KD value for KRAS) [3] | HRAS/KRAS (ratio of KD value with respect to GDP-bound HRAS wild-type protein to KD value with respect to KRAS) [2] | NRAS/KRAS (ratio of KD value with respect to GDP-bound NRAS wild-type protein to KD value with respect to KRAS) [3] | also measured
1 | CCCN1C(=O)[C@@H]2CCN2C(=O)C2(CC2)NC(=O)[C@H]([C@@H](C)CC)NC(=O)[C@H](CC(C)C)N(C)C(=O)C[C@@H](C(=O)N2CCOCC2)N(C)C(=O)[C@H](C2CCCC2)N(C)C(=O)C2(CCCC2)NC(=O)[C@@H]2CCCN2C(=O)[C@H](CCc2ccc(C(F)(F)F)c(Cl)c2)NC(=O)CN(C)C(=O)[C@@H]1Cc1ccc(C(F)(F)F)cc1 [PP0276] ([NMeL]I[Ac3c][Aze][NPrPhe(4-CF3)][Sar][hPhe(3-Cl-4-CF3)]P[Ac5c][NMeGly(cPent)][NMeD]-Morpholide; lactam N-11) | – | – | – | – | Kd ([1]; SPR Single Cycle Kinetics, 1:1 binding model): 150 nM
2 | CCO[C@@H]1C[C@H]2C(=O)NC3(CC(C)(C)C3)C(=O)N(C)[C@@H](C(CC)CC)C(=O)N(C)[C@H](C(=O)N(C)C)CC(=O)N(C)[C@H]3CCCC/C=C/c4ccc(cc4)C[C@@H](C(=O)N(C)CC(=O)N[C@@H](CCc4cc(F)c(C(F)(F)F)c(F)c4)C(=O)N2C1)N1CC/C=C\C[C@@H](C1=O)N(C)C(=O)CN(C)C(=O)[C@H]([C@@H](C)CC)NC3=O [PP3044] | – | – | – | – | Kd ([1]; SPR, Single Cycle Kinetics): 0.052 nM
3 | CCCOC[C@H]1C(=O)N[C@@H]([C@@H](C)CC)C(=O)N(C2CC2)CC(=O)N(C)[C@H]2C/C=C\CCN(C2=O)[C@@H](Cc2ccc(C(F)(F)F)cc2)C(=O)N(C)CC(=O)N[C@@H](CCc2ccc(C(F)(F)F)c(OC)c2)C(=O)N2C[C@H](OCC)C[C@H]2C(=O)N(C)C2(CCC2)C(=O)N(C)[C@@H](C2CCCC2)C(=O)N(C)[C@H](C(=O)N(C)C)CC(=O)N1C [PP2318] | A (a compound having 10 or more and less than 20 is denoted as A) | A (a compound having 10 or more and less than 20 is denoted as A) | – | – | –
4 | CCCC[C@H]1C(=O)N[C@@H]([C@@H](C)CC)C(=O)N(C)CC(=O)N(C)[C@H]2C/C=C\CCN(C2=O)[C@@H](Cc2ccc(C(F)(F)F)cc2)C(=O)N(C)CC(=O)N[C@@H](CCc2cc(F)c(C(F)(F)F)c(F)c2)C(=O)N2C[C@H](OCC)C[C@H]2C(=O)NC2(CCC2)C(=O)N(C)[C@@H](C2CCCC2)C(=O)N(C)[C@H](C(=O)N(CC)CC)CC(=O)N1C [PP1576] | – | – | – | – | HRAS/KRAS (ratio of KD value for HRAS to KD value for KRAS) ([2]; KD ratio class): A (a compound having 10 or more and less than 20 is denoted as A); NRAS/KRAS (ratio of KD value for NRAS to KD value for KRAS) ([3]; KD ratio class): AA (a compound having 20 or more is denoted as AA)
5 | CCO[C@@H]1C[C@H]2C(=O)NC3(CCC3)C(=O)N(C)[C@@H](C3CCCC3)C(=O)N(C)[C@H](C(=O)N3CCOCC3)CC(=O)N(C)[C@@H](CC3CCC3)C(=O)N[C@@H]([C@@H](C)CC)C(=O)N(C)CC(=O)N(C)[C@H]3CCCCCN(C3=O)[C@@H](Cc3ccc(C(F)(F)F)cc3)C(=O)N(C)CC(=O)N[C@@H](CCc3cc(F)c(C(F)(F)F)c(F)c3)C(=O)N2C1 [PP0683] | – | – | – | – | HRAS/KRAS (ratio of KD value with respect to HRAS to KD value with respect to KRAS) [2]: B (a compound having 3 or more and less than 10 is denoted as B); NRAS/KRAS (ratio of KD value with respect to NRAS to KD value with respect to KRAS) [3]: B (a compound having 3 or more and less than 10 is denoted as B)
6 | CCOC[C@H]1C(=O)N[C@@H]([C@@H](C)CC)C(=O)N(C)CC(=O)N(C)[C@H]2C/C=C\CCN(C2=O)[C@@H](Cc2ccc(C(C)C)cc2)C(=O)N(C)CC(=O)N[C@@H](CCc2ccc(C(F)(F)F)c(OC)c2)C(=O)N2C[C@@H](C)C[C@H]2C(=O)NC2(CC(C)(C)C2)C(=O)N(C)[C@@H](C2CCCC2)C(=O)N(C)[C@H](C(=O)N(C)CC)CC(=O)N1C [PP2701] | – | – | A (a compound having 10 or more and less than 20 is denoted as A) | A (a compound having 10 or more and less than 20 is denoted as A) | –
7 | CCC[C@H]1C(=O)N[C@@H]([C@@H](C)CC)C(=O)N(C2CC2)CC(=O)N(C)[C@H]2C/C=C\CCN(C2=O)[C@@H](Cc2ccc(C)cc2)C(=O)N(C)CC(=O)N[C@@H](CCc2cc(F)c(CC)c(OC)c2)C(=O)N2C[C@H](OCC)C[C@H]2C(=O)NC2(CC(C)(C)C2)C(=O)N(C)[C@@H](C2CCCC2)C(=O)N(C)[C@H](C(=O)N(C)C)CC(=O)N1C [PP2872] | – | – | A (a compound having 10 or more and less than 20 is denoted as A) | A (a compound having 10 or more and less than 20 is denoted as A) | –
8 | CCC[C@H]1C(=O)N[C@@H]([C@@H](C)CC)C(=O)N(C2CC2)CC(=O)N(C)[C@H]2C/C=C\CCN(C2=O)[C@@H](Cc2ccc(C)cc2)C(=O)N(C)CC(=O)N[C@@H](CCc2cc(C)c(C(F)F)c(Cl)c2)C(=O)N2C[C@H](OCC)C[C@H]2C(=O)NC2(CC(C)(C)C2)C(=O)N(C)[C@@H](C2CCCC2)C(=O)N(C)[C@H](C(=O)N(C)C)CC(=O)N1C [PP2875] | – | – | A (a compound having 10 or more and less than 20 is denoted as A) | A (a compound having 10 or more and less than 20 is denoted as A) | –
9 | CCC[C@H]1C(=O)N[C@@H]([C@@H](C)CC)C(=O)N(C2CC2)CC(=O)N(C)[C@H]2C/C=C\CCN(C2=O)[C@@H](Cc2ccc(C)cc2)C(=O)N(C)CC(=O)N[C@@H](CCc2ccc(C(F)(F)F)c(OC)c2)C(=O)N2C[C@H](OCC)C[C@H]2C(=O)NC2(CC(C)(C)C2)C(=O)N(C)[C@@H](C2CCCC2)C(=O)N(C)[C@H](C(=O)N(C)C)CC(=O)N1C [PP2097] | A (a compound having 10 or more and less than 20 is denoted as A) | A (a compound having 10 or more and less than 20 is denoted as A) | – | – | –
10 | CCC[C@H]1C(=O)N[C@@H]([C@@H](C)CC)C(=O)N(C2CC2)CC(=O)N(C)[C@H]2C/C=C\CCN(C2=O)[C@@H](Cc2ccc(C)cc2)C(=O)N(C)CC(=O)N[C@@H](CCc2ccc(C3CC3)c(F)c2)C(=O)N2C[C@H](OCC)C[C@H]2C(=O)NC2(CC(C)(C)C2)C(=O)N(C)[C@@H](C2CCCC2)C(=O)N(C)[C@H](C(=O)N(C)C)CC(=O)N1C [PP2884] | – | – | A (a compound having 10 or more and less than 20 is denoted as A) | A (a compound having 10 or more and less than 20 is denoted as A) | –
11 | CCCO[C@@H]1C[C@H]2C(=O)N(C)C3(CC(C)(C)C3)C(=O)N(C)[C@@H](C(CC)CC)C(=O)N(C)[C@H](C(=O)N(C)C)CC(=O)N(C)[C@@H](COC)C(=O)N[C@@H]([C@@H](C)CC)C(=O)N(C)CC(=O)N(C)[C@H]3C/C=C\CCN(C3=O)[C@@H](Cc3ccc(C)cc3)C(=O)N(C)CC(=O)N[C@@H](CCc3ccc(Cl)c(Cl)c3)C(=O)N2C1 [PP2812] | – | – | A (a compound having 10 or more and less than 20 is denoted as A) | AA (a compound having 20 or more is denoted as AA) | –
12 | CC[C@H](C)[C@@H]1NC(=O)[C@H](CC(C)C)N(C)C(=O)C[C@@H](C(=O)N2CCOCC2)N(C)C(=O)[C@H](C2CCCC2)N(C)C(=O)C2(CCC2)NC(=O)[C@@H]2C[C@@H](OCC3CC3)CN2C(=O)[C@H](CCc2cc(F)c(C(F)(F)F)c(F)c2)NC(=O)CN(C)C(=O)[C@H](Cc2ccc(C(F)(F)F)cc2)N2CCCC[C@@H](C2=O)N(C)C(=O)CN(C)C1=O [PP1000] | B (a compound having 3 or more and less than 10 is denoted as B) | B (a compound having 3 or more and less than 10 is denoted as B) | – | – | –
13 | CCC[C@H]1C(=O)N[C@@H]([C@@H](C)CC)C(=O)N(C)CC(=O)N(C)[C@H]2C/C=C\CCN(C2=O)[C@@H](Cc2ccc(C)cc2)C(=O)N(C)CC(=O)N[C@@H](CCc2cc(Cl)c3sccc3c2)C(=O)N2C[C@H](OCC)C[C@H]2C(=O)NC2(CC(C)(C)C2)C(=O)N(C)[C@@H](C2CCCC2)C(=O)N(C)[C@H](C(=O)N(C)C)CC(=O)N1C [PP2947] | – | – | B (a compound having 3 or more and less than 10 is denoted as B) | B (a compound having 3 or more and less than 10 is denoted as B) | –
14 | CC[C@H](C)[C@@H]1NC(=O)[C@H](CC(C)C)N(C)C(=O)C[C@@H](C(=O)N2CCOCC2)N(C)C(=O)[C@H](C2CCCC2)N(C)C(=O)C2(CCCC2)NC(=O)[C@@H]2CCCN2C(=O)[C@H](CCc2cc(F)c(C(F)(F)F)c(F)c2)NC(=O)CN(C)C(=O)[C@H](Cc2ccc(F)cc2)N2CCCCC[C@@H](C2=O)N(C)C(=O)CN(C)C1=O [PP0964] | B (a compound having 3 or more and less than 10 is denoted as B) | B (a compound having 3 or more and less than 10 is denoted as B) | – | – | –
15 | CCC[C@H]1C(=O)N[C@@H]([C@@H](C)CC)C(=O)N(C)CC(=O)N(C)[C@H]2C/C=C\CCN(C2=O)[C@@H](Cc2ccc(C)cc2)C(=O)N(C)CC(=O)N[C@@H](CCc2ccc(C(F)(F)F)c(OC)c2)C(=O)N2C[C@H](OCC)C[C@H]2C(=O)NC2(CC(C)(C)C2)C(=O)N(C)[C@@H](CC(C)C)C(=O)N(C)[C@H](C(=O)N(C)C)CC(=O)N1C [PP3008] | A (a compound having 10 or more and less than 20 is denoted as A) | A (a compound having 10 or more and less than 20 is denoted as A) | – | – | –
16 | CCCN1C(=O)[C@H](C2CCCC2)N(C)C(=O)C2(CCC2)NC(=O)[C@@H]2C[C@@H](OCC)CN2C(=O)[C@H](CCc2cc(F)c(C(F)(F)F)c(F)c2)NC(=O)CN(C)C(=O)[C@H](Cc2ccc(C(F)(F)F)cc2)N2CCCC[C@@H](C2=O)N(C)C(=O)CN(C)C(=O)[C@H]([C@@H](C)CC)NC(=O)[C@H](CC)N(C)C(=O)C[C@H]1C(=O)N(C)C [PP0644] | – | – | – | – | HRAS/KRAS (ratio of KD value with respect to HRAS to KD value with respect to KRAS) [2]: B (a compound having 3 or more and less than 10 is denoted as B); NRAS/KRAS (ratio of KD value with respect to NRAS to KD value with respect to KRAS) [3]: C (A compound having a KD ratio of 0.1 or more and less than 3 is denoted as C)
